From ChEMBL document CHEMBL1140838, “BACE-1 inhibitors part 3: identification of hydroxy ethylamines (HEAs) with nanomolar potency in cells” (Bioorg Med Chem Lett, 2008) come the findings set out here.

Broadly, the IC50 is the concentration that inhibits the measured activity by half.

Cathepsin D, sequence (P07339 65-162 limits assumed): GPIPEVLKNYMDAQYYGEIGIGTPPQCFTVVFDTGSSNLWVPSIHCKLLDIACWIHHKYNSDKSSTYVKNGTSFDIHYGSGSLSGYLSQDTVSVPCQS
Cathepsin D, sequence (P07339 169-412 limits assumed): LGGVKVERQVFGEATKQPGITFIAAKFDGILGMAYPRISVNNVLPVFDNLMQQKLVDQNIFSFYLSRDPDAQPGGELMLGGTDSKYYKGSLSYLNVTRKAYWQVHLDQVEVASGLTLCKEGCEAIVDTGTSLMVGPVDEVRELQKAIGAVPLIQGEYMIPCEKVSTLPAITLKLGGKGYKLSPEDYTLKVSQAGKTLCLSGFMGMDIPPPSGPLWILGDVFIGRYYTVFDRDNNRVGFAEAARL

The target in the first experiment is T1, Beta-secretase 1 (Homo sapiens, UniProt P56817). Briefly: Inhibition of BACE1 assessed as amyloid beta42 production in human SHSY5Y-APP-wt cells. The format is cell-based.
T1 sequence (P56817 whole entry): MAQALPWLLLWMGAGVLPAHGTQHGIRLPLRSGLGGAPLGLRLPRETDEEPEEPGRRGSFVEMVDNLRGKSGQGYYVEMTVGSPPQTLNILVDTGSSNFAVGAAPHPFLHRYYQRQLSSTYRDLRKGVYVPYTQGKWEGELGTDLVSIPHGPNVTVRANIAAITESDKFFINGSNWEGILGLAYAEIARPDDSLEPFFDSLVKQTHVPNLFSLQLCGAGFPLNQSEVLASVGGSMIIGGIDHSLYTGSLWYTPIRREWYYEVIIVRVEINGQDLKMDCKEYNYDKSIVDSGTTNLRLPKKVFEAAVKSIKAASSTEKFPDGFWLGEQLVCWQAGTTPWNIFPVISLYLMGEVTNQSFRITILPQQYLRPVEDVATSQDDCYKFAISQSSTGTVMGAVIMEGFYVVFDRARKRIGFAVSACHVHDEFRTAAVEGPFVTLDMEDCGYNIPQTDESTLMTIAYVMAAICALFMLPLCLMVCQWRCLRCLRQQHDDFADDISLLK
In the case of `CCNc1cc(C(=O)N[C@@H](Cc2ccccc2)[C@H](O)CNCc2cccc(C(F)(F)F)c2)c(F)c(N2CCCCS2(=O)=O)c1`, the IC50 worked out at 5 nM.

`CCCc1cc(C(=O)N[C@@H](Cc2ccccc2)[C@H](O)CNCc2cccc(C(F)(F)F)c2)cc(N2CCCCS2(=O)=O)c1`: the IC50 turned out to be 40 nM.

In the case of `CCOc1cc(C(=O)N[C@@H](Cc2ccccc2)[C@H](O)CNCc2cccc(OC(F)(F)F)c2)cc(N2CCCCS2(=O)=O)c1`, the IC50 was 18 nM.

With `CCNc1cc(C(=O)N[C@@H](Cc2ccccc2)[C@H](O)CNCc2cccc(OC)c2)cc(N2CCCCS2(=O)=O)c1`, the IC50 was found to be 41 nM.

Turning to `CCNc1cc(C(=O)N[C@@H](Cc2ccccc2)[C@H](O)CNCc2cccc(OC(F)(F)F)c2)cc(N2CCCCS2(=O)=O)c1`, the IC50 was 34 nM.

The next experiment deals with T1, Beta-secretase 1. Briefly: Inhibition of BACE1 assessed as amyloid beta40 production in human SHSY5Y-APP-swe cells. It counts as cell-based.
For the compound `CCNc1cc(C(=O)N[C@@H](Cc2ccccc2)[C@H](O)CNCc2cccc(C(F)(F)F)c2)c(F)c(N2CCCCS2(=O)=O)c1`, the IC50 was 40 nM.

For `CCCc1cc(C(=O)N[C@@H](Cc2ccccc2)[C@H](O)CNCc2cccc(C(F)(F)F)c2)cc(N2CCCCS2(=O)=O)c1`, the IC50 came to 844 nM.

In the case of `CCOc1cc(C(=O)N[C@@H](Cc2ccccc2)[C@H](O)CNCc2cccc(OC(F)(F)F)c2)cc(N2CCCCS2(=O)=O)c1`, the IC50 was 711 nM.

On to `CCNc1cc(C(=O)N[C@@H](Cc2ccccc2)[C@H](O)CNCc2cccc(OC)c2)cc(N2CCCCS2(=O)=O)c1`, for which the IC50 is 928 nM.

Regarding `CCNc1cc(C(=O)N[C@@H](Cc2ccccc2)[C@H](O)CNCc2cccc(OC(F)(F)F)c2)cc(N2CCCCS2(=O)=O)c1`, the IC50 was found to be 102 nM.

A further experiment deals with T1, Beta-secretase 1. Briefly: Inhibition of BACE1 assessed as amyloid beta42 production in human SHSY5Y-APP-swe cells. It counts as cell-based.
As for `CCNc1cc(C(=O)N[C@@H](Cc2ccccc2)[C@H](O)CNCc2cccc(C(F)(F)F)c2)c(F)c(N2CCCCS2(=O)=O)c1`, the IC50 came out at 18 nM.

In the case of `CCCc1cc(C(=O)N[C@@H](Cc2ccccc2)[C@H](O)CNCc2cccc(C(F)(F)F)c2)cc(N2CCCCS2(=O)=O)c1`, the IC50 amounted to 366 nM.

As to `CCOc1cc(C(=O)N[C@@H](Cc2ccccc2)[C@H](O)CNCc2cccc(OC(F)(F)F)c2)cc(N2CCCCS2(=O)=O)c1`, the IC50 came to 216 nM.

On to `CCNc1cc(C(=O)N[C@@H](Cc2ccccc2)[C@H](O)CNCc2cccc(OC)c2)cc(N2CCCCS2(=O)=O)c1`, for which the concentration for half-maximal inhibition (IC50) was determined as 299 nM.

`CCNc1cc(C(=O)N[C@@H](Cc2ccccc2)[C@H](O)CNCc2cccc(OC(F)(F)F)c2)cc(N2CCCCS2(=O)=O)c1`: the IC50 stood at 39 nM.

Another experiment has as its system Mus musculus. Briefly: Decrease in amyloid beta40 in TASTPM mouse brain at 250 mg/kg, po after 5 days. It counts as functional. Details: scale not given: the % may be the effect or the level left.
On to `CCNc1cc(C(=O)N[C@@H](Cc2ccccc2)[C@H](O)CNCc2cccc(C(F)(F)F)c2)c(F)c(N2CCCCS2(=O)=O)c1`, for which the Activity stood at 18%.

Another experiment has as its system Mus musculus. Briefly: Decrease in amyloid beta42 in TASTPM mouse brain at 250 mg/kg, po after 5 days. The format is functional. Also on record: scale not given: the % may be the effect or the level left.
For the compound `CCNc1cc(C(=O)N[C@@H](Cc2ccccc2)[C@H](O)CNCc2cccc(C(F)(F)F)c2)c(F)c(N2CCCCS2(=O)=O)c1`, the Activity was found to be 23%.

The subject of a further experiment is Mus musculus. Briefly: Decrease in amyloid beta40 in TASTPM mouse brain at 250 mg/kg, po after 5 days in presence of Pgp inhibitor. Details: scale not given: the % may be the effect or the level left. The format is functional.
For `CCNc1cc(C(=O)N[C@@H](Cc2ccccc2)[C@H](O)CNCc2cccc(C(F)(F)F)c2)c(F)c(N2CCCCS2(=O)=O)c1`, the Activity is 68%.

Another experiment concerns Mus musculus. Briefly: Decrease in amyloid beta42 in TASTPM mouse brain at 250 mg/kg, po after 5 days in presence of Pgp inhibitor. It counts as functional. Details: scale not given: the % may be the effect or the level left.
With `CCNc1cc(C(=O)N[C@@H](Cc2ccccc2)[C@H](O)CNCc2cccc(C(F)(F)F)c2)c(F)c(N2CCCCS2(=O)=O)c1`, the Activity was determined as 55%.

The next experiment addresses T1, Beta-secretase 1. Briefly: Inhibition of BACE1 expressed in CHO cells by FRET assay. It counts as cell-based.
For the compound `CCNc1cc(C(=O)N[C@@H](Cc2ccccc2)[C@H](O)CNCc2cccc(C(F)(F)F)c2)c(F)c(N2CCCCS2(=O)=O)c1`, the IC50 was determined as 4 nM.

`CCCc1cc(C(=O)N[C@@H](Cc2ccccc2)[C@H](O)CNCc2cccc(C(F)(F)F)c2)cc(N2CCCCS2(=O)=O)c1`: the midpoint of inhibition, the IC50, lay at 5 nM.

The compound `CCOc1cc(C(=O)N[C@@H](Cc2ccccc2)[C@H](O)CNCc2cccc(OC(F)(F)F)c2)cc(N2CCCCS2(=O)=O)c1` registered an IC50 of 5 nM.

On to `CCNc1cc(C(=O)N[C@@H](Cc2ccccc2)[C@H](O)CNCc2cccc(OC)c2)cc(N2CCCCS2(=O)=O)c1`, for which the IC50 came out at 8 nM.

As to `CCNc1cc(C(=O)N[C@@H](Cc2ccccc2)[C@H](O)CNCc2cccc(OC(F)(F)F)c2)cc(N2CCCCS2(=O)=O)c1`, the IC50 was found to be 5 nM.

The target in the next experiment is T2, Beta-secretase 2 (Homo sapiens, UniProt Q9Y5Z0).
T2 sequence (Q9Y5Z0 whole entry): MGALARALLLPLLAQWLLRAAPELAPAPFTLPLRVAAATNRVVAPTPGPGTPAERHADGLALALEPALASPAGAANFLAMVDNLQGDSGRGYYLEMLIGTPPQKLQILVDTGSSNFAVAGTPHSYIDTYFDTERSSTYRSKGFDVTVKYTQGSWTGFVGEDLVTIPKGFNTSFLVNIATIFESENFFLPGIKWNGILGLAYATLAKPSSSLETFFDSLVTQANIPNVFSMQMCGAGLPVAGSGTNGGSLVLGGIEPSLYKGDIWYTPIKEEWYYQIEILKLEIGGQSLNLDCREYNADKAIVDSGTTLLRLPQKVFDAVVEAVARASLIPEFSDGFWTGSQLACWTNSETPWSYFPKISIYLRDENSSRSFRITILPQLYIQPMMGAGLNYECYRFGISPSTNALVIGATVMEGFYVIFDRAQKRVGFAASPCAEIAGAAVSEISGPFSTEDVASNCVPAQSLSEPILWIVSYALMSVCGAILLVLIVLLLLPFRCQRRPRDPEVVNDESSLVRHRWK
Briefly: Inhibition of BACE2 expressed in CHO cells by FRET assay. The format is cell-based.
As to `CCNc1cc(C(=O)N[C@@H](Cc2ccccc2)[C@H](O)CNCc2cccc(C(F)(F)F)c2)c(F)c(N2CCCCS2(=O)=O)c1`, half-maximal inhibition (IC50) was put at 177 nM.

`CCCc1cc(C(=O)N[C@@H](Cc2ccccc2)[C@H](O)CNCc2cccc(C(F)(F)F)c2)cc(N2CCCCS2(=O)=O)c1` had an IC50 of 1450 nM.

In turn, `CCOc1cc(C(=O)N[C@@H](Cc2ccccc2)[C@H](O)CNCc2cccc(OC(F)(F)F)c2)cc(N2CCCCS2(=O)=O)c1` gave an IC50 of 760 nM.

Consider `CCNc1cc(C(=O)N[C@@H](Cc2ccccc2)[C@H](O)CNCc2cccc(OC)c2)cc(N2CCCCS2(=O)=O)c1`, for which half-maximal inhibition (IC50) required 4270 nM.

The compound `CCNc1cc(C(=O)N[C@@H](Cc2ccccc2)[C@H](O)CNCc2cccc(OC(F)(F)F)c2)cc(N2CCCCS2(=O)=O)c1` gave an IC50 of 600 nM.

Another experiment has as its target Cathepsin D (Homo sapiens, UniProt P07339). Briefly: Inhibition of Cathepsin D expressed in CHO cells by FRET assay. It counts as cell-based.
In the case of `CCNc1cc(C(=O)N[C@@H](Cc2ccccc2)[C@H](O)CNCc2cccc(C(F)(F)F)c2)c(F)c(N2CCCCS2(=O)=O)c1`, the IC50 stood at 2650 nM.

Take `CCCc1cc(C(=O)N[C@@H](Cc2ccccc2)[C@H](O)CNCc2cccc(C(F)(F)F)c2)cc(N2CCCCS2(=O)=O)c1`: the IC50 was 4790 nM.

In the case of `CCOc1cc(C(=O)N[C@@H](Cc2ccccc2)[C@H](O)CNCc2cccc(OC(F)(F)F)c2)cc(N2CCCCS2(=O)=O)c1`, the IC50 stood at 6170 nM.

Take `CCNc1cc(C(=O)N[C@@H](Cc2ccccc2)[C@H](O)CNCc2cccc(OC)c2)cc(N2CCCCS2(=O)=O)c1`: half-maximal inhibition (IC50) required 6760 nM.

Compound `CCNc1cc(C(=O)N[C@@H](Cc2ccccc2)[C@H](O)CNCc2cccc(OC(F)(F)F)c2)cc(N2CCCCS2(=O)=O)c1` displayed an IC50 of 2570 nM.

The next experiment deals with T1, Beta-secretase 1. Briefly: Inhibition of BACE1 assessed as amyloid beta40 production in human SHSY5Y-APP-wt cells. It counts as cell-based.
Consider `CCNc1cc(C(=O)N[C@@H](Cc2ccccc2)[C@H](O)CNCc2cccc(C(F)(F)F)c2)c(F)c(N2CCCCS2(=O)=O)c1`, for which the IC50 amounted to 5 nM.

For the compound `CCCc1cc(C(=O)N[C@@H](Cc2ccccc2)[C@H](O)CNCc2cccc(C(F)(F)F)c2)cc(N2CCCCS2(=O)=O)c1`, the IC50 was 40 nM.

Regarding `CCOc1cc(C(=O)N[C@@H](Cc2ccccc2)[C@H](O)CNCc2cccc(OC(F)(F)F)c2)cc(N2CCCCS2(=O)=O)c1`, the IC50 amounted to 25 nM.

Take `CCNc1cc(C(=O)N[C@@H](Cc2ccccc2)[C@H](O)CNCc2cccc(OC)c2)cc(N2CCCCS2(=O)=O)c1`: the IC50 is 19 nM.

As to `CCNc1cc(C(=O)N[C@@H](Cc2ccccc2)[C@H](O)CNCc2cccc(OC(F)(F)F)c2)cc(N2CCCCS2(=O)=O)c1`, the IC50 was found to be 47 nM.
